{
  "source": "patent US11306063B2",
  "about": "“Heterocyclic naphthoquinones derivatives for use in the treatment of cancers including Cushing disease” (Commissariat a l'Energie Atomique et aux Energies …, priority 2016, dated 2022)",
  "key": {"[1]": {"target": "T1, USP8^CD (Homo sapiens, UniProt P40818)", "T1 construct": "the purified catalytic domain of USP8 (USP8^CD, in-house purified); made in house; host or cells: E. coli BL21 Gold", "T1 sequence (P40818 777-1109 limits assumed)": "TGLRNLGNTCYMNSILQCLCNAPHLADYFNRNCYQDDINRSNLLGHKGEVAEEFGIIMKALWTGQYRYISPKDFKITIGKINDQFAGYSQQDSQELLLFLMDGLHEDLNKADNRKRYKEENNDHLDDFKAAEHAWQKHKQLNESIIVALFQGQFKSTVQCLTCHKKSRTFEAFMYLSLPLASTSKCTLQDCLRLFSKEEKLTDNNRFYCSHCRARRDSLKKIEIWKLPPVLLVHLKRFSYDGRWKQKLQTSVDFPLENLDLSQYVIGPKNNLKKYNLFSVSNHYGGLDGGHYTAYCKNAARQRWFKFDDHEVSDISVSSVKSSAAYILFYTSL", "experiment": "tri-Ub^K63 chains hydrolysis by USP8^CD (western blot)", "format": "biochemical", "settings": "FIG. 1D, at the indicated concentrations", "method": "The degradation of purified lysine 63-linked tree-Ubiquitin chains (triUb^K63) over a 90 minutes period of time was visualized by western blot analysis. […] Enzymatic assay was performed in a HEPES buffer (50 mM pH7.4, 150 mM NaCl, 0.5 mM EDTA, 2% glycerol, 0.2 mg/ml BSA, 5 mMDTT)."}, "[2]": {"tested_on": "HCC827 cells", "experiment": "Cytotoxicity assay (PrestoBlue cell viability), HCC827", "format": "cell-based", "settings": "Homo sapiens, 48 hours treatment", "method": "Messa, Messa DX5, HCT116, HEK-293, PC-3, LNCaP, HCC827 and H1975 cell lines are issued from the American Type Culture Collection (ATCC).\nFor cytotoxicity assays, cells were seeded in 96-well microplates 24 hours before the addition of increasing concentrations of each compound in the culture medium. Cell viability was analyzed 48 hours following addition of each compound through the monitoring of mitochondrial […] activity using PrestoBlue® Cell Viability Reagent (Invitrogen; #A-13261). Paclitaxel was used as a control which is cytotoxic on various cancerous cells although not on chemoresistant MESSA DX5 lineage."}, "[3]": {"target": "USP8-FL (Homo sapiens, UniProt P40818)", "sequence (P40818 whole entry)": "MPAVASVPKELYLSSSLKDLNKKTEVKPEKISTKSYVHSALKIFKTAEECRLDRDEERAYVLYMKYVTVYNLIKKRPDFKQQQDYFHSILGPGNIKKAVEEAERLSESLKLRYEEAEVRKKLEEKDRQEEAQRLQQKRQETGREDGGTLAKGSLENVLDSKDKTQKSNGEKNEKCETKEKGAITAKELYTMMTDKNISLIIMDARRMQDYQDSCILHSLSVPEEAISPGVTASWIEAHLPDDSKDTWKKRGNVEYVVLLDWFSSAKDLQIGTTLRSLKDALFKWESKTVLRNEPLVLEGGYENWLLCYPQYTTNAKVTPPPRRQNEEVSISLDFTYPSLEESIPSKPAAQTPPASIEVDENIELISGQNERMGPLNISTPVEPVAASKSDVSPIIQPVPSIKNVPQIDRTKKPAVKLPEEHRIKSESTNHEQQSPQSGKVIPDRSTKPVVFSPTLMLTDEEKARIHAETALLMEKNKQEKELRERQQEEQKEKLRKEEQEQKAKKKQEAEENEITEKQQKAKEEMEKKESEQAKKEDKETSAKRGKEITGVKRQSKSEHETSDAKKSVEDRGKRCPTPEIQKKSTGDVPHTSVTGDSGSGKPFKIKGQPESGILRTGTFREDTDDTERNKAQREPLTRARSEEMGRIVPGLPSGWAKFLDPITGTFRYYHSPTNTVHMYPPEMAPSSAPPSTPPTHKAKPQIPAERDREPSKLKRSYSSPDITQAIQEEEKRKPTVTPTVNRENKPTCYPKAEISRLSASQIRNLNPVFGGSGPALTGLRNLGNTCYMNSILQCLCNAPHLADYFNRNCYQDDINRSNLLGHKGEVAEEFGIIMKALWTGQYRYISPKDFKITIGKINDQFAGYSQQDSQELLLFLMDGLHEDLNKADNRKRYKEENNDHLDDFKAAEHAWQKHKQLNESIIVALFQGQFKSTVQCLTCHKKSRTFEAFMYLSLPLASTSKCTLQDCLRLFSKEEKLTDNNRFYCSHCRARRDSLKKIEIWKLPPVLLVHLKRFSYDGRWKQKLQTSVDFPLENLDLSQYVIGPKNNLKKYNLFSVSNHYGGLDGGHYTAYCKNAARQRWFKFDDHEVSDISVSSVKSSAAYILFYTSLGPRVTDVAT", "experiment": "biochemical"}, "[4]": {"tested_on": "p53 in HCT116 cells", "experiment": "Protein expression by immunoblot, HCT116", "format": "cell-based, human", "settings": "dose dependent; FIG. 7B", "method": "Actin or Tubulin (Tub) serve as loading controls. One representative experiment out of three is presented.\n(§1) Cells were treated by either DMSO (0.5%) or increasing doses of the selected molecules from 1 μM to 10 μM over 6 to 24 hours as indicated. Cell lysates were analyzed by immunoblotting following standard procedure using primary antibodies from Cell Signaling: anti-total P53 (#9282), anti-phosphoP53 Kit (#9919), anti-cyclinD1 (#2926), anti-FAS (#3189), anti EGFR (#4267), anti-Phospho (tyr1068) EGFR (#2234), anti Met (#4560), anti-Akt (#9272), anti Phospho(Ser473)-Akt (#9271) or anti-Myc (Santa Cruz Technology #Sc-40). Tubulin was detected using anti α-tubulin primary antibody (in-house: the polyclonal Glu-tubulin antibody (L4) is available commercially from Abcys (Paris, France)). HRP-coupled anti-rabbit (#A6154) and anti-mouse (#A4416) secondary antibodies were purchased from Sigma. HRP activity was detected through HRP chemoluminescence detection reagent (Millipore, #WBLUF0100). Apoptotic cell death induction was observed through the observation of PARP cleavage using anti-PARP primary antibodies anti-PARP (46D11) (#9532). Positive control was Epotoside at 50 μM or 100 μM, a known drug inducing cancerous cell death by apoptosis."}, "[5]": {"tested_on": "EGFR, P-EGFR, Met, P-Akt in HCC827 cells", "experiment": "Protein expression by immunoblot, HCC827", "format": "cell-based, human", "settings": "6 hours; dose dependent; FIG. 10", "method": "Tubulin (Tub) serve as loading controls. One representative experiment out of two is presented.\n(§2) Cells were treated by either DMSO (0.5%) or increasing doses of the selected molecules from 1 μM to 10 μM over 6 to 24 hours as indicated. […] Tubulin was detected using anti α-tubulin primary antibody (in-house: the polyclonal Glu-tubulin antibody (L4) is available commercially from Abcys (Paris, France)). HRP-coupled anti-rabbit (#A6154) and anti-mouse (#A4416) secondary antibodies were purchased from Sigma. HRP activity was detected through HRP chemoluminescence detection reagent (Millipore, #WBLUF0100). […] Positive control was Epotoside at 50 μM or 100 μM, a known drug inducing cancerous cell death by apoptosis."}, "[6]": {"tested_on": "chicken embryos", "experiment": "Toxicity in the chick embryo model", "format": "in vivo", "settings": "each second day at 2 μM or 10 μM; FIG. 4B", "method": "The number of dead embryo evaluates the toxicity after 10 days of the treatment as well as the research of abnormality on 22 checkpoints observed on surviving embryos at two concentrations of drugs (i.e. 2 μM and 10 μM). • Head: Size, Closure, Eyes, Ear, Face and Branchial are derivatives, Mobility; • Body: Size, Axis deformation, ventral and dorsal Closures, Caudal formation, Sexual area; • Limbs: Size, Axis morphology, Mobility, • Skin: Appendage formation, Attachment, Blood vessel; • Extra-Embryonic Structures: Vascularisation, Transparency, Attachment, Blood vessel Results"}, "[7]": {"tested_on": "LNCaP cells spheroids", "experiment": "Cell migration out of 3D spheroids", "format": "cell-based, human", "settings": "2 μM and 5 μM; 1 to 7 days; FIG. 3", "method": "In vitro migration out of the spheroid was performed using a 96-well tissue culture plate (Cell Culture Microplate, 96 wells, Flat-BOTTOM, CellStar #655090). 100 μL (72 h hours old+24 h drug treatment spheroids) were placed in corresponding well of the new flat microplate, and daily observed in bright field with a Zeiss Axio Observer microscope. Each condition was made in six replicates. The migration area was measured with the tools of the AxioObserver software.\nTo this end, 3-days old spheroids are placed in a new flat-well microplate and daily observed in bright field."}, "[8]": {"target": "USP2-FL (Homo sapiens, UniProt O75604)", "sequence (O75604 whole entry)": "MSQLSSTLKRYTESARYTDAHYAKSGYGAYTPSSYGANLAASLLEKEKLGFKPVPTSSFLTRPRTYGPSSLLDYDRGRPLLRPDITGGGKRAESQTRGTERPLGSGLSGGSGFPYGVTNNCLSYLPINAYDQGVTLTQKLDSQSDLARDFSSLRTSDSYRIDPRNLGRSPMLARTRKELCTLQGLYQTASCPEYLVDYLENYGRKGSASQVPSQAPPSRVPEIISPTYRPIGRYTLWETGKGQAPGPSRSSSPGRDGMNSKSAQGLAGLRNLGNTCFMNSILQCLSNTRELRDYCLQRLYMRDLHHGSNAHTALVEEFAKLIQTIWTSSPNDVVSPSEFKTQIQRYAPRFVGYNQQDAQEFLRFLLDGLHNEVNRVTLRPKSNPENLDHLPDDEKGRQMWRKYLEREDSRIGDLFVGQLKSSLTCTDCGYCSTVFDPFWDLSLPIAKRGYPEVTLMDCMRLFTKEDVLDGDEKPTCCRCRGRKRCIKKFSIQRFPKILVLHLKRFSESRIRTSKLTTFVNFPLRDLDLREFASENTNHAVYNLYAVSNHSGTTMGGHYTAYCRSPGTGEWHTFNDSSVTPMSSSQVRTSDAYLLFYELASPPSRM", "experiment": "biochemical"}, "[9]": {"tested_on": "EGFR and Met in HEK293T cells", "experiment": "Protein expression by immunoblot, HEK293T (Flag-USP8-S680A)", "format": "cell-based, human", "settings": "FIG. 11", "method": "One representative experiment out of two is presented.\nas §2"}, "[10]": {"tested_on": "CyclinD1 and FAS in PC-3 cells", "experiment": "Protein expression by immunoblot, PC-3", "format": "cell-based, human", "settings": "dose and time dependent; 6 h or 24 h; FIG. 6", "method": "In FIG. 6B and FIG. 6D, LNCaP cells were treated with dihydrotestosterone (DHT) to induce hormonal dependent FAS expression. Actin or Tubulin (Tub) serve as loading controls. One representative experiment out of three is presented.\nas §1"}, "[11]": {"tested_on": "MDA-MB231 triple negative breast cancer cells", "experiment": "Wounding assay, MDA-MB231", "format": "cell-based", "settings": "from 1 μM concentration; mitomycine 2 μg/ml; 24 hours", "method": "In addition the migratory capacity of two additional triple negative breast cancer cells lines: the metastatic MDA-MB231 and BT-549 showing high migratory capacity was analyzed in a classical wound assay.\nBT-549, MDA-MB231 cell lines were issued from the American Type Culture Collection (ATCC). For wounding assays, cells were seeded in 24-well microplates (Culture Insert 21, ref 250210, Ibidi®). […] Cell spreading was then visualized during 24 hours by videomicroscopy (1 acquisition each 30 min). A representative picture of 3 is presented at 0 and 12 hours of drug treatment out. In Graphs, curves represents the empty surface (devoid of cells) between the two cell layers (delimited by using Image J software)."}},
  "data": [
    {"smiles": "CCCCS(=O)(=O)Cc1nc2c(o1)C(=O)c1ccccc1C2=O", "note": "[PCR9301]", "values": [
      {"measurement": "inhibition of tri-Ub^K63 chains hydrolysis by USP8^CD", "setting": "[1]", "value": "full inhibition"}
    ]},
    {"smiles": "CCCCS(=O)(=O)Cc1nc2c(nc1CS(=O)(=O)CCCC)C(=O)c1ccccc1C2=O", "note": "[PCR6236]", "values": [
      {"measurement": "EC50", "setting": "[2]", "value": 1800, "unit": "nM"},
      {"measurement": "IC50", "setting": "[3]", "value": "< 30", "unit": "nM"},
      {"measurement": "p53 expression, HCT-116", "setting": "[4]", "value": "restored high levels of p53 expression"},
      {"measurement": "Akt phosphorylation, HCC827", "setting": "[5]", "value": "prevents Akt phosphorylation"},
      {"measurement": "EGFR degradation, HCC827", "setting": "[5]", "value": "EGFR and Met degradation"},
      {"measurement": "EGFR phosphorylation, HCC827", "setting": "[5]", "value": "induces EGFR phosphorylation"},
      {"measurement": "Met degradation, HCC827", "setting": "[5]", "value": "EGFR and Met degradation"},
      {"measurement": "toxicity (death, macroscopic abnormalities) in chick embryo", "setting": "[6]", "value": "No significant toxicity"},
      {"measurement": "prevention of cell migration out of the spheroids", "setting": "[7]", "value": "strong capacity"},
      {"measurement": "IC50", "setting": "[8]", "value": 200, "unit": "nM"},
      {"measurement": "EGFR levels induced by USP8-S680A, HEK293T", "setting": "[9]; 6 h", "value": "markedly reduced EGFR levels"},
      {"measurement": "Met degradation, HEK293T", "setting": "[9]; 6 hours, dose-dependent", "value": "induced Met degradation"},
      {"measurement": "expression level of CyclinD1, PC-3", "setting": "[10]", "value": "strongly decreased"},
      {"measurement": "expression level of FAS, PC-3", "setting": "[10]", "value": "strongly decreased"},
      {"measurement": "cell migration in wounding assay, MDA-MB231", "setting": "[11]", "value": "prevents triple negative breast cancer cell migration"}
    ]}
  ]
}
